These results are taken from patent US5707984A, “Steroid nitrite/nitrate ester derivatives useful as anti-inflammatory drugs” (G. D. Searle & Co., priority 1995, dated 1998).

Structures are written as SMILES. Bounds are passed on as bounds.

The test system of assay [1] is rat aortic ring smooth muscle. Nature of the assay: In vitro smooth relaxant activity assay, rat aortic rings precontracted with phenylephrine. It counts as cell-based. The conditions noted are these: for EC50: Rattus norvegicus, in the presence of Cys and L-NAME, precontracted with phenylephrine (0.3 μM), read-out: Relaxation, EC50; for smooth muscle relaxant activity (in words): rat aortic rings, Cys and L-NAME, FIGS. 1 and 2. How it is done: (§1) Selected compounds were tested in three in vitro and two in vivo assays. The in vitro assays consisted of the following: measuring the effect of the compounds to inhibit the increase of prostaglandins following treatment of human fetal fibroblasts cells with interleukin-1 followed by arachidonic acid, measuring the effect of the compounds on cyclic GMP in the human fetal fibroblasts, and measuring the smooth muscle relaxant activity in rat aortic rings. The in vivo assay consists of measuring the antiinflammatory properties of the compounds in the carageenan treated rat air pouch model and the relaxant activity on acetylcholine-induced bronchoconstriction in guinea-pigs.
C. In vitro smooth relaxant activity assay: Selected compounds were examined for the ability to relax smooth muscle. The rat aortic ring assay was utilized as a bioassay to measure the relaxant activity. The rings were precontracted with phenylephrine (0.3 μM) and subsequently compounds were added to the tissue bath in the presence of cysteine (Cys) and N^G -L-nitro-arginine methyl ester (L-NAME): […]

Assay [2] has as its system cyclic GMP in human fetal fibroblasts. Nature of the assay: In vitro stimulation of cGMP production assay, human fetal fibroblasts with isobutylmethylxanthine, radioimmunoassay (NO reporter cell assay). The conditions noted are these: 120 min, isobutylmethylxanthine present; basal 1.8. Type of assay: cell-based. On the procedure: as §1
B. In vitro stimulation of cGMP production assay: Human fetal fibroblasts in the presence of isobutylmethylxanthine, an inhibitor of phosphodiesterase, were treated with compounds for 120 min and the intra-cellular cyclic GMP levels are measured by a radioimmunoassay. The cell line is utilized as a reporter cell assay to monitor the production of NO.

The test system of assay [3] is prostaglandin E2 (PGE2) synthesis in human fetal fibroblasts cells. The assay is described as follows: In vitro inhibition of prostaglandin E2 (PGE2) synthesis assay, human fetal fibroblasts treated with IL-1 then arachidonic acid, ELISA. Conditions: IL-1 16 h then arachidonic acid; compound 10 uM added with IL-1; basal 3.5, IL-1, AA alone 40.0. Type of assay: cell-based. On the procedure: as §1
A. In vitro inhibiton of prostaglandin E2 (PGE2) synthesis assay: Human fetal fibroblasts cells were treated with IL-1 for 16 hours and then with 10 mM arachidonic acid (AA). The prostaglandin E2 levels were measured by an ELISA. Compounds were given at the time of addition of IL-1. This assay provides an in vitro assessment of the compound to block the induction of the proinflammatory agent prostaglandin E2 (PGE2): […]

Assay [4] relates to prostaglandin E2 in pouch fluid (carageenan-induced inflammation). Nature of the assay: In vivo anti inflammatory assay, rat carageenan air pouch. How it is done:
as §1
D. In vivo anti inflammatory assay: EXAMPLE 1 was tested for antiinflammatory activity in vivo in the rat carageenan air pouch assay. Rats are injected subcutaneously with a volume of air over several days to form a pouch. […] The inflammation is measured by assaying the pouch fluid for prostaglandin E2 by ELISA. Examples 1 at 3 mg/kg dose blocked the increase in prostaglandin E2 by 60%.

By EC50 is commonly meant the midpoint of the concentration-response curve. Turning to `CCC(=O)OCC(=O)[C@@]1(OC(=O)CC)[C@@H](C)C[C@H]2[C@@H]3CCC4=CC(=O)C=C[C@]4(C)[C@@]3(Cl)[C@@H](O[N+](=O)[O-])C[C@@]21C` [beclomethasone dipropionate-11-nitrate ester], the EC50 in assay [1] was found to be 2000 nM.

For `CCC(=O)OCC(=O)[C@@]1(OC(=O)CC)[C@@H](C)C[C@H]2[C@@H]3CCC4=CC(=O)C=C[C@]4(C)[C@@]3(Cl)[C@@H](O)C[C@@]21C` [beclomethasone dipropionate], in assay [1], the concentration giving a half-maximal response (EC50) is more than 100000 nM and the “smooth muscle relaxant activity (in words)” value was “did not show any effect”.

In the case of `CCC(=O)OCC(=O)[C@@]1(OC(=O)CC)[C@@H](C)C[C@H]2[C@@H]3CCC4=CC(=O)C=C[C@]4(C)[C@@]3(Cl)[C@@H](ON=O)C[C@@]21C` [Example 11], the EC50 in assay [1] amounted to 40 nM.

For the compound `C[C@]12C=CC(=O)C=C1CC[C@@H]1[C@@H]2[C@@H](O)C[C@@]2(C)[C@H]1CC[C@]2(O)C(=O)CO` [prednisolone], the “cyclic GMP” value in assay [2] turned out to be 1.6 fm/cell well. In assay [1], the “smooth muscle relaxant activity (in words)” value is “did not show any effect”. This compound also displayed a PGE2 in assay [3] of 9.9 ng.

As for `CC(=O)OCC(=O)[C@@]1(O)CC[C@H]2[C@@H]3CCC4=CC(=O)C=C[C@]4(C)[C@H]3[C@@H](O[N+](=O)[O-])C[C@@]21C` [prednisolone-11-nitrate ester-21-acetate], in assay [1], the EC50 worked out at 25000 nM.

In the case of `CC(=O)OCC(=O)[C@@]1(O)CC[C@H]2[C@@H]3CCC4=CC(=O)C=C[C@]4(C)[C@H]3[C@@H](ON=O)C[C@@]21C` [Example 1], the “cyclic GMP” value in assay [2] is listed as 4.8 fm/cell well. For the same compound, the concentration for a half-maximal effect (EC50) in assay [1] turned out to be 20 nM. For the same compound, the PGE2 in assay [3] amounted to 9.2 ng. The “ability to reduce inflammation in vivo (in words)” value in assay [4] is on record as “possess the ability to reduce inflammation in vivo”. Further, the “blocked the increase in prostaglandin E2” value in assay [4] (3 mg/kg) was determined as 60%.

Take `C[C@]12C=CC(=O)C=C1CC[C@@H]1[C@@H]2[C@@H](ON=O)C[C@@]2(C)[C@H]1CC[C@]2(O)C(=O)CO` [Example 2]: the EC50 in assay [1] amounted to 30 nM.
